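The compound was tested at five concentrations on cells cultured in 96-well plates, with a 48-hour exposure period. GI50 = concentration required for 50% inhibition of growth. TGI denotes the concentration required for complete inhibition of growth.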
Tests used:
Experiment in all cases: growth of human tumour cells (NCI), 48 h
[1] = tested on: ACHN renal
[2] = tested on: HOP-92 NSCLC
[3] = tested on: HS 578T breast
[4] = tested on: NCI/ADR-RES ovarian

c1ccc(-c2c(-c3ccccc3)[n+](Cc3ccc4ccccc4c3)cn2Cc2ccc3ccccc3c2)cc1
GI50 [1]: 1.47 µM | TGI [1]: 2.9 µM | GI50 [2]: 0.122 µM | TGI [2]: 1.26 µM | GI50 [3]: 1.74 µM | TGI [3]: 4.91 µM | GI50 [4]: 2.13 µM | TGI [4]: 5.12 µM

From PubChem BioAssay (NCI)
